From US10821115B2, “Compounds that inhibit Mcl-1 protein” (priority 2017, dated 2020) come the findings set out here.

Assay [1] concerns the target recombinant human Mcl-1 (residues 171-327) / Bim interaction (Homo sapiens (Human), UniProt Q07820). Description: biochemical. The note with it: read-out: Mcl-1 HTRF IC50. The format is binding. (Time-resolved FRET reads energy transfer from a long-lived donor to a nearby acceptor.)
Assay [2] has as its system human multiple myeloma cell line, OPM-2. Description: Cell viability assay (OPM-2 10 FBS), CellTiter-Glo. The format is cell-based. Put shortly:
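Steps: plate cells at 3000/well in 10% FBS growth medium, add serially diluted compound, incubate 16 h at 37 °C with 5% CO2, add detection reagent and read luminescence after 25 min. A 4-parameter logistic model gives IC50.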
Background: In ATP-based viability assays light output follows the ATP content of the culture.

The mark [3] stands for this setting: TR-FRET, Mcl-1(171-327) / biotin-Bim (51-76).
Where [4] appears, read: Homo sapiens, OPM-2, 16 h, read-out: OPM-2 10% FBS IC50 IP, OPM-2 cells, 10% FBS, 16 h, CellTiter-Glo.
Where [5] appears, read: read-out: OPM-2 10% FBS IC50 IP, OPM-2 cells, 10% FBS, 16 h, CellTiter-Glo.
Where [6] appears, read: 0.1 nM Mcl-1(171-327), 0.05 nM biotin-Bim (51-76).
Where [7] appears, read: Homo sapiens, OPM-2, 16 h, read-out: OPM-2 10% FBS IC50 IP, OPM-2 cells, 10% FBS, 16 h incubation.

The structures appear in SMILES notation. Where two headings read alike, the source gives them in different places. Bounds are passed on as bounds.

Chain of recombinant human Mcl-1 (residues 171-327) / Bim interaction (Q07820 171-327): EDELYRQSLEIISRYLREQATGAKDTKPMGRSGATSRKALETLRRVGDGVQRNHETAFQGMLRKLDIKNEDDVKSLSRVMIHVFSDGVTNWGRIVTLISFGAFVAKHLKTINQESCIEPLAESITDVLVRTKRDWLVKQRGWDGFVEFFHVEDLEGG

The IC50 is the concentration that gives 50% inhibition. With `C#C[C@]1(OC)/C=C/C[C@H](C)[C@@H](C)S(=O)(=O)NC(=O)c2ccc3c(c2)N(C[C@@H]2CC[C@H]21)C[C@@]1(CCCc2cc(Cl)ccc21)CO3` [Example 100502, (1S,3′R,6′R,7′S,8′E,11′S,12′R)-6-chloro-7′-ethynyl-7′-methoxy-11′,12′-dimethyl-3,4-dihydro-2H,15′H-spiro[naphthalene-1,22′-[20]oxa[13]thia[1,14]diazatetracyclo [14.7.2.0~3,6~.0~19,24~]pentacosa[8,16,18,24]tetraen]-15′-one 13′,13′-dioxide], the IC50 is 0.29 nM in assay [1] (setting [3]) and 393 nM in assay [2] (setting [4]).
As for `CO[C@@]1(C)/C=C/C[C@H](C)[C@@H](CCN2CCOCC2)S(=O)(=O)NC(=O)c2ccc3c(c2)N(C[C@@H]2CC[C@H]21)C[C@@]1(CCCc2cc(Cl)ccc21)CO3` (single isomer, unassigned) [Example 100595], the IC50 in assay [1] (setting [3]) is 0.157 nM; in assay [2] (setting [5]), 133 nM.
The corresponding values for `C[C@@H]1[C@@H](C)CCC[C@](CO)(OCCN2CCOCC2)[C@@H]2CC[C@H]2CN2C[C@@]3(CCCc4cc(Cl)ccc43)COc3ccc(cc32)C(=O)NS1(=O)=O` [Example 100284, (1S,3′R,6′R,7′S,11′S,12′R)-6-chloro-7′-(hydroxymethyl)-11′,12′-dimethyl-7′-(2-(4-morpholinyl)ethoxy)-3,4-dihydro-2H,15′H-spiro[naphthalene-1,22′-[20]oxa[13]thia[1,14]diazatetracyclo [14.7.2.0~3,6~.0~19,24~]pentacosa[16,18,24]trien]-15′-one 13′,13′-dioxide] are 0.285 nM and 396 nM.
As to `CCCN1CCN(C[C@@]2(OC)/C=C/C[C@H](C)[C@@H](C)S(=O)(=O)NC(=O)c3ccc4c(c3)N(C[C@@H]3CC[C@H]32)C[C@@]2(CCCc3cc(Cl)ccc32)CO4)CC1` [Example 97, (1S,3′R,6′R,7′R,8′E,11′S,12′R)-6-chloro-7′-methoxy-11′,12′-dimethyl-7′-((4-propyl-1-piperazinyl)methyl)-3,4-dihydro-2H,15′H-spiro[naphthalene-1,22′-[20]oxa[13]thia[1,14]diazatetracyclo [14.7.2.0~3,6~.0~19,24~]pentacosa[8,16,18,24]tetraen]-15′-one 13′,13′-dioxide], the IC50 in assay [1] (setting [6]) was determined as 0.299 nM; in assay [2] (setting [7]) it was 228 nM.
The corresponding values for `CC[C@@H]1CC/C=C/[C@](CN2CCN(C)CC2)(OC)[C@@H]2CC[C@H]2CN2C[C@@]3(CCCc4cc(Cl)ccc43)COc3ccc(cc32)C(=O)NS1(=O)=O` [Example 31, (1S,3′R,6′R,7′S,8′E,12′R)-6-chloro-12′-ethyl-7′-methoxy-7′-((4-methyl-1-piperazinyl)methyl)-3,4-dihydro-2H,15′H-spiro[naphthalene-1,22′-[20]oxa[13]thia[1,14]diazatetracyclo [14.7.2.0~3,6~.0~19,24~]pentacosa[8,16,18,24]tetraen]-15′-one 13′,13′-dioxide] are 0.184 nM and 216 nM.
As for `C[C@@H]1[C@@H](C)CCC[C@@](O)(CC(=O)N2CCOCC2)[C@@H]2CC[C@H]2CN2C[C@@]3(CCCc4cc(Cl)ccc43)COc3ccc(cc32)C(=O)NS1(=O)=O` [Example 100086, (1S,3′R,6′R,7′R,11′S,12′R)-6-chloro-7′-hydroxy-11′,12′-dimethyl-7′-(2-(4-morpholinyl)-2-oxoethyl)-3,4-dihydro-2H,15′H-spiro[naphthalene-1,22′-[20]oxa[13]thia[1,14]diazatetracyclo [14.7.2.0~3,6~.0~19,24~]pentacosa[16,18,24]trien]-15′-one 13′,13′-dioxide], the half-inhibitory concentration (IC50) in assay [1] (setting [3]) was 0.537 nM; in assay [2] (setting [4]), 390 nM.
Turning to `CO[C@]1(CN2CCN(CCS(C)(=O)=O)CC2)/C=C/C[C@H](C)[C@@H](C)S(=O)(=O)NC(=O)c2ccc3c(c2)N(C[C@@H]2CC[C@H]21)C[C@@]1(CCCc2cc(Cl)ccc21)CO3` [Example 73, (1S,3′R,6′R,7′R,8′E,11′S,12′R)-6-chloro-7′-methoxy-11′,12′-dimethyl-7′-((4-(2-(methylsulfonyl)ethyl)-1-piperazinyl)methyl)-3,4-dihydro-2H,15′H-spiro[naphthalene-1,22′-[20]oxa[13]thia[1,14]diazatetracyclo [14.7.2.0~3,6~.0~19,24~]pentacosa[8,16,18,24]tetraen]-15′-one 13′,13′-dioxide], the figures for the IC50 in assay [1] (setting [6]) and in assay [2] (setting [7]) were 0.609 nM and 129 nM, respectively.
Take `CO[C@@]1(CCN2CCCC2)/C=C/C[C@H](C)[C@@H](C)S(=O)(=O)NC(=O)c2ccc3c(c2)N(C[C@@H]2CC[C@H]21)C[C@@]1(CCCc2cc(Cl)ccc21)CO3` [Example 100412, (1S,3′R,6′R,7′S,8′E,11′S,12′R)-6-chloro-7′-methoxy-11′,12′-dimethyl-7′-(2-(1-pyrrolidinyl)ethyl)-3,4-dihydro-2H,15′H-spiro[naphthalene-1,22′-[20]oxa[13]thia[1,14]diazatetracyclo [14.7.2.0~3,6~.0~19,24~]pentacosa[8,16,18,24]tetraen]-15′-one 13′,13′-dioxide]: the values for the half-inhibitory concentration (IC50) in assay [1] (setting [3]) and in assay [2] (setting [4]) were 0.097 nM and 249 nM, respectively.
Turning to `C[C@@H]1[C@@H](C)C/C=C/[C@]2(CN(CC3CCOCC3)CCO2)[C@@H]2CC[C@H]2CN2C[C@@]3(CCCc4cc(Cl)ccc43)COc3ccc(cc32)C(=O)NS1(=O)=O` [Example 135, (1S,3′R,6′R,7′R,8′E,11′S,12′R)-6-chloro-11′,12′-dimethyl-4″- (tetrahydro-2H-pyran-4-ylmethyl)-3,4-dihydro-2H,15′H-dispiro[naphthalene-1,22′-[20]oxa[13]thia[1,14]diazatetracyclo [14.7.2.0~3,6~.0~19,24~]pentacosa[8,16,18,24]tetraene-7′,2″-[1,4]oxazinan]-15′-one 13′,13′-dioxide], the IC50 in assay [1] (setting [6]) is 8.18 nM; in assay [2] (setting [7]), greater than 33300 nM.
On to `CCOC[C@@]1(O)CCC[C@H](C)[C@@H](C)S(=O)(=O)NC(=O)c2ccc3c(c2)N(C[C@@H]2CC[C@H]21)C[C@@]1(CCCc2cc(Cl)ccc21)CO3` [Example 100190, (1S,3′R,6′R,7′R,11′S,12′R)-6-chloro-7′-(ethoxymethyl)-7′-hydroxy-11′,12′-dimethyl-3,4-dihydro-2H,15′H-spiro[naphthalene-1,22′-[20]oxa[13]thia[1,14]diazatetracyclo [14.7.2.0~3,6~.0~19,24~]pentacosa[16,18,24]trien]-15′-one 13′,13′-dioxide], for which the results for the half-maximal inhibitory concentration (IC50) in assay [1] (setting [3]) and in assay [2] (setting [4]) were 4.79 nM and 2480 nM, respectively.
With `COCC[C@@H]1[C@@H](C)C/C=C/[C@](CN2CCN3CCCC[C@@H]3C2)(OC)[C@@H]2CC[C@H]2CN2C[C@@]3(CCCc4cc(Cl)ccc43)COc3ccc(cc32)C(=O)NS1(=O)=O` [Example 182, (1S,3′R,6′R,7′S,8′E,11′S,12′R)-6-chloro-7′-methoxy-12′-(2-methoxyethyl)-11′-methyl-7′-((9aR)-octahydro-2H-pyrido[1,2-a]pyrazin-2-ylmethyl)-3,4-dihydro-2H,15′H-spiro[naphthalene-1,22′-[20]oxa[13]thia[1,14]diazatetracyclo [14.7.2.0~3,6~.0~19,24~]pentacosa[8,16,18,24]tetraen]-15′-one 13′,13′-dioxide], the IC50 turned out to be 0.171 nM in assay [1] (setting [6]) and 88 nM in assay [2] (setting [7]).
For `CO[C@]1(CN2CCN3CCOC[C@H]3C2)/C=C/C[C@H](C)[C@@H](C)S(=O)(=O)NC(=O)c2ccc3c(c2)N(C[C@@H]2CC[C@H]21)C[C@@]1(CCCc2cc(Cl)ccc21)CO3` [Example 58, (1S,3′R,6′R,7′R,8′E,11′S,12′R)-6-chloro-7′-((9aR)-hexahydropyrazino[2,1-c][1,4]oxazin-8(1H)-ylmethyl)-7′-methoxy-11′,12′-dimethyl-3,4-dihydro-2H,15′H-spiro[naphthalene-1,22′-[20]oxa[13]thia[1,14]diazatetracyclo [14.7.2.0~3,6~.0~19,24~]pentacosa[8,16,18,24]tetraen]-15′-one 13′,13′-dioxide], in that order: 0.719 nM and 95 nM.
The corresponding values for `CCCO[C@]1(CN2CCN(C(C)C)[C@H](C)C2)/C=C/C[C@H](C)[C@@H](C)S(=O)(=O)NC(=O)c2ccc3c(c2)N(C[C@@H]2CC[C@H]21)C[C@@]1(CCCc2cc(Cl)ccc21)CO3` [Example 368, (1S,3′R,6′R,7′R,8′E,11′S,12′R)-6-chloro-11′,12′-dimethyl-7′-(((3R)-3-methyl-4-(2-propanyl)-1-piperazinyl)methyl)-7′-propoxy-3,4-dihydro-2H,15′H-spiro[naphthalene-1,22′-[20]oxa[13]thia[1,14]diazatetracyclo [14.7.2.0~3,6~.0~19,24~]pentacosa[8,16,18,24]tetraen]-15′-one 13′,13′-dioxide] are 0.069 nM and 68 nM.
For `CO[C@@]1([C@@H](C)O)CCC[C@H](C)[C@@H](C)S(=O)(=O)NC(=O)c2ccc3c(c2)N(C[C@@H]2CC[C@H]21)C[C@@]1(CCCc2cc(Cl)ccc21)CO3` [Example 100483, (1S,3′R,6′R,7′S,11′S,12′R)-6-chloro-7′-((1R)-1-hydroxyethyl)-7′-methoxy-11′,12′-dimethyl-3,4-dihydro-2H,15′H-spiro[naphthalene-1,22′-[20]oxa[13]thia[1,14]diazatetracyclo [14.7.2.0~3,6~.0~19,24~]pentacosa[16,18,24]trien]-15′-one 13′,13′-dioxide], the IC50 stood at 1.66 nM in assay [1] (setting [3]) and 1690 nM in assay [2] (setting [4]).
